Measurements from patent US10894798B2, “Substituted dihydropyrrolopyrazole derivative” (UBE INDUSTRIES, LTD., priority 2015, dated 2021).
Like-named read-outs stand apart in the source and are kept apart here.

Assays:
Type in all cases: cell-based
[1] = test system: Human keratinocytes (NHEK-Neo Pooled); assay: Human keratinocyte growth inhibition assay; details: 48 h, culture for 2 days, Cell Counting Kit-8
Protocol: The measurement of a human keratinocyte growth inhibitory effect was carried out by modifying the method of Schafer et al. (British Journal of Pharmacology, 159, 842 (2011)).
Human keratinocytes (NHEK-Neo Pooled, manufactured by Lonza Group AG) were cultured in KGM-Gold keratinocyte growth medium Bullet Kit (manufactured by Lonza Group AG) and inoculated at 2×10^3 cells/well to a 96-well plate. After overnight culture in a carbon dioxide incubator, a test compound dissolved in DMSO (final DMSO concentration: 0.1%) was added thereto and left standing in a carbon dioxide incubator. After culture for 2 days, the absorbance thereof was measured by using Cell Counting Kit-8 (manufactured by Dojindo Laboratories).
The rate of inhibition of cell growth at each concentration was calculated from the test compound concentration and the absorbance of Cell Counting Kit-8, and the concentration of the test compound necessary for inhibiting 50% of cell growth (GI50 value) was calculated by using EXSUS (version 8.1.0, manufactured by CAC Exicare Corp.).

IL-2 production = assay: Human PBMC CD3/CD28-induced IL-2 production inhibition test; details: 48 h, read-out: IC50 value, IL-2 production inhibition
Protocol: PBMC (peripheral blood mononuclear cell) was separated and collected by using Ficoll-Paque (manufactured by GE Healthcare Japan Corp.) from blood collected from a healthy human adult in the presence of heparin. A RPMI1640 medium containing 10% FBS, 1% penicillin/streptomycin/amphotericin B, essential amino acids, and pyruvic acid and containing a test compound dissolved in DMSO and 2 μg/mL CD28 was added at 100 μL/well to T cell Activation Plate Anti-Human CD3 96-well plate (manufactured by Becton, Dickinson and Company), and subsequently, a PBMC suspension prepared such that the number of cells was 2×10^6 cells/mL was added thereto at 100 μL/well (final DMSO concentration: 0.1%). A RPMI1640 medium containing 10% FBS and containing 0.1% DMSO and 2 μg/mL CD28 was similarly added to wells not supplemented with the test compound. After culture for 2 days in a carbon dioxide incubator, the culture supernatant was collected. The collected culture supernatant was stored at −20° C. until IL-2 content measurement.
In the measurement of an L-2 content in the culture supernatant, a sandwich ELISA kit (Quantikine Human IL-2, manufactured by R&D Systems, Inc.) was used. The L-2 content of each sample was calculated from the calibration curve of Standard IL-2 included in the kit. […] A test compound concentration necessary for inhibiting 50% of L-2 production (IC50 value) was calculated from the concentration of the added test compound and the rate of inhibition of IL-2 production by the test compound by using EXSUS (version 8.1.0, manufactured by CAC Exicare Corp.).

[2] = test system: bladder cancer cell line T24; assay: Various human cancer cell growth inhibition test: T24; details: ATPlite, read-out: GI50 value (concentration necessary for inhibiting 50% of cell growth)
Source text: A breast cancer cell line BT-549 (obtained from American Type Culture Collection (ATCC)), a uterus cancer cell line C-33A (obtained from ATCC), an ovary cancer cell line PA-1 (obtained from ATCC), a large-cell lung cancer cell line NCI-H460 (obtained from ATCC), a small-cell lung cancer cell line NCI-H82 (obtained from ATCC), a kidney cancer cell line ACHN (obtained from ATCC), a pancreatic cancer cell line BxPC-3 (obtained from ATCC), a malignant melanoma cell line A375 (obtained from ATCC), a throat cancer cell line FaDu (obtained from ATCC), a medulloblastoma cell line Daoy (obtained from ATCC), a cutaneous epithelioid sarcoma cell line VA-ES-BJ (obtained from ATCC), a rhabdomyosarcoma cell line A-204 (obtained from ATCC), a prostate cancer cell line DU145 (obtained from ATCC), a bladder cancer cell line T24 (obtained from ATCC), a lymphoma cell line SR (obtained from ATCC), a neuroblastoma cell line SH-SY5Y (obtained from DS Pharma Biomedical Co., Ltd.), a liver cancer cell line HepG2 (obtained from DS Pharma Biomedical Co., Ltd.), a stomach cancer cell line HGC-27 (obtained from DS Pharma Biomedical Co., Ltd.), and a multiple myeloma cell line NCI-H929 (obtained from DS Pharma Biomedical Co., Ltd.) were used as human cancer cell lines.
Each cell line was cultured in a cell culture medium recommended by ATCC or DS Pharma Biomedical Co., Ltd. and inoculated at 0.3 to 5.0×10^3 cells/well to a 96-well plate. The cells were cultured overnight in a carbon dioxide incubator of 37° C. containing 5% carbon dioxide. The medium was replaced with a fresh medium on the next day, then replaced with a mixed solution of a DMSO solution of a test compound with varying concentrations and a culture medium (final DMSO concentration: 0.1%), and left standing in a carbon dioxide incubator (day 0). IV-361, IV-379, IV-3, IV-215, IV-299, IV-669, IV-1049, and palbociclib (for comparison) were used as test compounds. For a control group, DMSO was added instead of the DMSO solution of the test compound to a cell culture medium (final DMSO concentration: 0.1%).
After culture for a predetermined period, the ATP activity of BT-549, C-33A, PA-1, NCI-H460, NCI-H82, ACHN, BxPC-3, A375, FaDu, Daoy, VA-ES-BJ, A-204, DU145, T24, and SR was measured by using ATPlite (manufactured by PerkinElmer, Inc.). The ATP activity of SH-SY5Y, HepG2, HGC-27, and NCI-H929 was measured by using CellTiter-Glo (manufactured by Promega Corp.).
The rate of inhibition of cell growth (%) was calculated according to the expression given below. Specifically, in the case where the difference between the ATP activity before culture (day 0) and the ATP activity after culture in the test compound-administered group is the same as the difference between the ATP activity before culture (day 0) and the ATP activity after culture in the control group, the rate of inhibition of cell growth is 0%. Rate of inhibition of cell growth=(1−((ATP activity of the test compound-administered group after culture)−(ATP activity of the test compound-administered group on day 0))/((ATP activity of the control group after culture)−(ATP activity of the control group on day 0)))×100
The concentration of the test compound necessary for inhibiting 50% of cell growth (GI50 value) was calculated by using EXSUS (version 8.1.0, manufactured by CAC Exicare Corp.).

[3] = human PBMC, CD3/CD28 stimulation, culture for 2 days, ELISA

| IC50 (IL-2 production; [3]) | GI50 [2] | SMILES | GI50 [1] | IC50 (IL-2 production; Homo sapiens, PBMC) |
| --- | --- | --- | --- | --- |
| – | – | COc1cccc(Cl)c1NC(=O)N1Cc2c(NC(=O)C3([Si](C)(C)C)CCC3)n[nH]c2C1(C)C [IV-247, N-(2-Chloro-6-methoxyphenyl)-6,6-dimethyl-3-[1-(trimethylsilyl)cyclobutanecarboxamido]-4,6-dihydropyrrolo[3,4-c]pyrazole-5(1H)-carboxamide] | ≤ 0.5 µM | – |
| ≤ 0.1 µM | – | Cc1ccc(F)c(NC(=O)N2Cc3c(NC(=O)C4([Si](C)(C)C)CCC4)n[nH]c3C2(C)C)c1 [IV-127, N-(2-Fluoro-5-methylphenyl)-6,6-dimethyl-3-[1-(trimethylsilyl)cyclobutanecarboxamido]-4,6-dihydropyrrolo[3,4-c]pyrazole-5 (1H)-carboxamide] | – | – |
| – | – | Cc1cccc(F)c1NC(=O)N1Cc2c(NC(=O)C3([Si](C)(C)C)CCC3)n[nH]c2C1(C)C [IV-129, N-(2-Fluoro-6-methylphenyl)-6,6-dimethyl-3-[1-(trimethylsilyl)cyclobutanecarboxamido]-4,6-dihydropyrrolo[3,4-c]pyrazole-5 (1H)-carboxamide] | ≤ 0.5 µM | – |
| ≤ 0.1 µM | – | Cc1ccccc1NC(=O)N1Cc2c(NC(=O)C3([Si](C)(C)C)CCC3)n[nH]c2C1(C)C [IV-21, 6,6-Dimethyl-N-(o-tolyl)-3-[1-(trimethylsilyl)cyclobutanecarboxamido]-4,6-dihydropyrrolo[3,4-c]pyrazole-5(1H)-carboxamide] | – | – |
| ≤ 0.1 µM | < 0.3 µM | Cc1ccc(C)c(NC(=O)N2Cc3c(NC(=O)C4([Si](C)(C)C)CCC4)n[nH]c3C2(C)C)c1 [IV-379, N-(2,5-Dimethylphenyl)-6,6-dimethyl-3-[1-(trimethylsilyl)cyclobutanecarboxamido]-4,6-dihydropyrrolo[3,4-c]pyrazole-5(1H)-carboxamide] | ≤ 0.5 µM | – |
| – | – | CC1(C)c2[nH]nc(NC(=O)C3([Si](C)(C)C)CCC3)c2CN1C(=O)Nc1c(F)cccc1Cl [IV-113, N-(2-Chloro-6-fluorophenyl)-6,6-dimethyl-3-[1-(trimethylsilyl)cyclobutanecarboxamido]-4,6-dihydropyrrolo[3,4-c]pyrazole-5(1H)-carboxamide] | – | ≤ 0.1 µM |
| ≤ 0.1 µM | < 0.3 µM | CC1(C)c2[nH]nc(NC(=O)C3([Si](C)(C)C)CCC3)c2CN1C(=O)Nc1ccccc1F [IV-3, N-(2-Fluorophenyl)-6,6-dimethyl-3-[1-(trimethylsilyl)cyclobutanecarboxamido]-4,6-dihydropyrrolo[3,4-c]pyrazole-5(1H)-carboxamide] | – | – |
| ≤ 0.1 µM | < 0.3 µM | CC1(C)c2[nH]nc(NC(=O)C3([Si](C)(C)C)CCC3)c2CN1C(=O)Nc1c(F)ccc2ccoc12 [IV-1049, N-(6-Fluorobenzofuran-7-yl)-6,6-dimethyl-3-[1-(trimethylsilyl)cyclobutanecarboxamido]-4,6-dihydropyrrolo[3,4-c]pyrazole-5 (1H)-carboxamide] | – | – |
| ≤ 0.1 µM | < 0.3 µM | Cc1ccc(C)c(NC(=O)N2Cc3c(NC(=O)C4([Si](C)(C)C)CCC4)n[nH]c3C2(C)C)c1F [IV-669, N-(2-Fluoro-3,6-dimethylphenyl)-6,6-dimethyl-3-[1-(trimethylsilyl)cyclobutanecarboxamido]-4,6-dihydropyrrolo[3,4-c]pyrazole-5(1H)-carboxamide] | – | – |
| ≤ 0.1 µM | < 0.3 µM | Cc1cccc(Br)c1NC(=O)N1Cc2c(NC(=O)C3([Si](C)(C)C)CCC3)n[nH]c2C1(C)C [IV-299, N-(2-Bromo-6-methylphenyl)-6,6-dimethyl-3-[1-(trimethylsilyl)cyclobutanecarboxamido]-4,6-dihydropyrrolo[3,4-c]pyrazole-5 (1H)-carboxamide] | – | – |
| ≤ 0.1 µM | < 0.3 µM | Cc1cccc(Cl)c1NC(=O)N1Cc2c(NC(=O)C3([Si](C)(C)C)CCC3)n[nH]c2C1(C)C [IV-215, N-(2-Chloro-6-methylphenyl)-6,6-dimethyl-3-[1-(trimethylsilyl)cyclobutanecarboxamido]-4,6-dihydropyrrolo[3,4-c]pyrazole-5 (1H)-carboxamide] | ≤ 0.5 µM | – |
| ≤ 0.1 µM | < 0.3 µM | Cc1ccc(F)cc1NC(=O)N1Cc2c(NC(=O)C3([Si](C)(C)C)CCC3)n[nH]c2C1(C)C [IV-361, N-(5-Fluoro-2-methylphenyl)-6,6-dimethyl-3-[1-(trimethylsilyl)cyclobutanecarboxamido]-4,6-dihydropyrrolo[3,4-c]pyrazole-5 (1H)-carboxamide] | ≤ 0.5 µM | – |
| ≤ 0.1 µM | – | COc1cccc(F)c1NC(=O)N1Cc2c(NC(=O)C3([Si](C)(C)C)CCC3)n[nH]c2C1(C)C [IV-161, N-(2-Fluoro-6-methoxyphenyl)-6,6-dimethyl-3-[1-(trimethylsilyl)cyclobutanecarboxamido]-4,6-dihydropyrrolo[3,4-c]pyrazole-5(1H)-carboxamide] | – | – |
